We go through seven compounds from ChEMBL document CHEMBL1122184, “Synthesis and antileukemic activity of fluorinated analogues of 2,3-dihydro-5-phenyl-6,7-bis(hydroxymethyl)-1H-pyrrolizine biscarbamate” (J Med Chem, 1982).

Each structure is given as a SMILES string.

Series [1] concerns Mus musculus. Nature of the series: In vivo activity of compound was measured against P388 lymphocytic leukemia at the dose of 6.25 mg/kg. It counts as functional.
Series [2] concerns Mus musculus. Nature of the series: In vivo activity of compound was measured against P388 lymphocytic leukemia at the dose of 50 mg/kg. Format: functional.
For series [3], the system named is Mus musculus. Nature of the series: In vivo activity of compound was measured against P388 lymphocytic leukemia at the dose of 25 mg/kg. Format: functional.
Series [4] relates to Mus musculus. In words: In vivo activity of compound was measured against P388 lymphocytic leukemia at the dose of 12.5 mg/kg. It counts as functional.
For series [5], the system named is Mus musculus. In words: In vivo activity of compound was measured against P388 lymphocytic leukemia at the dose of 200 mg/kg; toxic. On the set-up: dose 200 mg/kg. It counts as functional, organism-based.
The subject of series [6] is Mus musculus. In words: In vivo activity of compound was measured against P388 lymphocytic leukemia at the dose of 100 mg/kg; toxic. It counts as functional, organism-based. Details: dose 100 mg/kg.
Series [7] has as its system Mus musculus. Nature of the series: In vivo activity of compound was measured against P388 lymphocytic leukemia at the dose of 25 mg/kg; toxic. It counts as functional, organism-based. Details: dose 25 mg/kg.
Series [8] has as its system Mus musculus. In words: In vivo activity of compound was measured against P388 lymphocytic leukemia at the dose of 6.25 mg/kg. It counts as functional.
In series [9] the test system is Mus musculus. Nature of the series: In vivo activity of compound was measured against P388 lymphocytic leukemia at the dose of 3.13 mg/kg. Format: functional.
Series [10] has as its system Mus musculus. Nature of the series: In vivo activity of compound was measured against P388 lymphocytic leukemia at the dose of 0.78 mg/kg. Format: functional.
The test system of series [11] is Mus musculus. In words: In vivo activity of compound was measured against P388 lymphocytic leukemia at the dose of 1.56 mg/kg. It counts as functional.
The subject of series [12] is Mus musculus. In words: In vivo activity of compound was measured against P388 lymphocytic leukemia at the dose of 50 mg/kg; toxic. Details: dose 50 mg/kg. It counts as functional, organism-based.
The test system of series [13] is Mus musculus. In words: In vivo activity of compound was measured against P388 lymphocytic leukemia at the dose of 12.5 mg/kg. It counts as functional.
In series [14] the test system is Mus musculus. In words: In vivo activity of compound was measured against P388 lymphocytic leukemia at the dose of 0.76 mg/kg. It counts as functional.
The test system of series [15] is Mus musculus. In words: In vivo activity of compound was measured against P388 lymphocytic leukemia at the dose of 25 mg/kg. It counts as functional.
In series [16] the test system is Mus musculus. Nature of the series: In vivo activity of compound was measured against P388 lymphocytic leukemia at the dose of 100 mg/kg. It counts as functional.
Series [17] deals with Mus musculus. In words: In vivo activity of compound was measured against P388 lymphocytic leukemia at the dose of 0.78 mg/kg; toxic. Details: dose 0.78 mg/kg. It counts as ADME, organism-based.
Series [18] has as its system Mus musculus. Nature of the series: In vivo activity of compound was measured against P388 lymphocytic leukemia at the dose of 50 mg/kg. Format: functional.
Series [19] deals with Mus musculus. In words: In vivo activity of compound was measured against P388 lymphocytic leukemia at the dose of 100 mg/kg. It counts as functional.

Regarding `CNC(=O)OCc1c(COC(=O)NC)c(-c2cc(F)ccc2F)n2c1CCC2`, the T/C in the series on Mus musculus [1] was 147%; in the series with Mus musculus [2], 73%; in the series on Mus musculus [3], 156%; with Mus musculus [4] it was 151%; in the series with Mus musculus [5], “Toxic”; with Mus musculus [6] it was “Toxic”.
Take `CNC(=O)OCc1c(COC(=O)NC)c(-c2ccc(F)cc2)n2c1CCC2`: the T/C entry with Mus musculus [7] is “Toxic”; in the series with Mus musculus [8] it was 137%; with Mus musculus [9], 141%; with Mus musculus [10] it was 146%; in the series with Mus musculus [11] it was 122%; in the series on Mus musculus [12] it was “Toxic”. Besides, the T/C result with Mus musculus [5] is “Toxic”; with Mus musculus [13], 128%; in the series on Mus musculus [6], “Toxic”.
Take `CC(C)NC(=O)OCc1c(COC(=O)NC(C)C)c(-c2ccc(F)cc2F)n2c1CCC2`: the T/C in the series on Mus musculus [8] was 162%; with Mus musculus [14] it was 135%; in the series on Mus musculus [9] it was 168%; in the series on Mus musculus [11], 142%; in the series on Mus musculus [12] it was “Toxic”; in the series with Mus musculus [5], “Toxic”. Also, the T/C in the series on Mus musculus [13] is 180%; in the series on Mus musculus [15] it was 99%; with Mus musculus [6], “Toxic”.
`CC(C)NC(=O)OCc1c(COC(=O)NC(C)C)c(-c2ccc(Cl)c(Cl)c2)n2c1CCC2`: the T/C with Mus musculus [8] is 149%; in the series with Mus musculus [16] it was 113%; in the series with Mus musculus [9] it was 141%; with Mus musculus [2] it was 160%; with Mus musculus [11] it was 122%; in the series with Mus musculus [5] it was “Toxic”. The T/C with Mus musculus [13] was determined as 177%; in the series with Mus musculus [15], 226%.
For `CNC(=O)OCc1c(COC(=O)NC)c(-c2cccc(F)c2F)n2c1CCC2`, the T/C was 131% in the series with Mus musculus [8]; 134% in the series with Mus musculus [9]; “Toxic” in the series with Mus musculus [12]; “Toxic” with Mus musculus [5]; 149% with Mus musculus [13]; 156% in the series on Mus musculus [15]. For the same compound, in the series on Mus musculus [6], the T/C entry is “Toxic”.
For the compound `CNC(=O)OCc1c(COC(=O)NC)c(-c2c(F)cccc2F)n2c1CCC2`, the T/C with Mus musculus [8] was 166%; in the series on Mus musculus [9], 148%; with Mus musculus [12], “Toxic”; in the series on Mus musculus [5], “Toxic”; with Mus musculus [13], 148%; in the series with Mus musculus [15], 88%. In the series on Mus musculus [6], the T/C entry was “Toxic”.
Regarding `CC(C)NC(=O)OCc1c(COC(=O)NC(C)C)c(-c2ccc(F)c(F)c2)n2c1CCC2`, the T/C result is “Toxic” in the series on Mus musculus [17]; 160% in the series on Mus musculus [8]; 92% with Mus musculus [18]; 151% with Mus musculus [9]; 126% with Mus musculus [11]; 70% in the series on Mus musculus [19]. In addition, the T/C entry with Mus musculus [5] was “Toxic”; in the series on Mus musculus [13], 178%; in the series on Mus musculus [15], 123%.
